# Experiment: Displacement of [3H]WAY-100635 from 5-HT1A receptor in pig cortex membranes
# Assay type: cell membranes, Sus scrofa
row,Ki [nM],SMILES
1,3500,Cc1ccc(CNCC2(F)CCN(C(=O)c3ccc4[nH]cnc4c3)CC2)nc1
2,420,Cc1ccc(CNCC2(F)CCN(C(=O)c3ccc(-c4cccs4)s3)CC2)nc1
3,4.8,Cc1ccc(CNCC2(F)CCN(C(=O)c3cc(Br)c(Br)s3)CC2)nc1
4,260,Cc1ccc(CNCC2(F)CC3CCC(C2)N3C(=O)c2ccsc2)nc1 (centres undefined)
5,660,Cc1ccc(CNCC2(F)CCN(C(=O)c3ccc[nH]3)CC2)nc1
6,26,Cc1ccc(CNCC2(F)CCN(C(=O)c3coc(Br)c3)CC2)nc1
7,330,Cc1ccc(CNCC2(F)CCN(C(=O)c3ccccc3-c3ccccc3)CC2)nc1
8,16,Cc1ccc(CNCC2(F)CCN(C(=O)c3ccsc3Br)CC2)nc1
9,450,Cc1ccc(CNCC2(F)CCN(C(=O)c3ccc(-c4csc(C)n4)s3)CC2)nc1
10,150,Cc1ccc(CNC[C@@]2(O)C[C@H]3CCC[C@@H](C2)N3C(=O)c2ccccc2)nc1 (stereo in doubt; 41)
11,300,Cc1ccc(CNCC2(F)CCN(C(=O)c3ccc(-c4ccccc4)cc3)CC2)nc1
12,120,Cc1ccc(CNCC2(O)CCN(C(=O)c3ccsc3)CC2)nc1
13,160,Cc1ccc(CNCC2(F)CCN(C(=O)C3CCc4ccccc4C3)CC2)nc1 (centres undefined)
14,910,Cc1ccc(CNCC2(F)CCN(C(=O)c3ccc4[nH]nnc4c3)CC2)nc1
15,360,Cc1ccc(CNCC2(F)CCN(C(=O)c3sccc3-n3cccc3)CC2)nc1
16,94,Cc1ccc(CNCC2(F)CCN(C(=O)c3cc4ccccc4[nH]3)CC2)nc1
17,220,Cc1ccc(CNCC2(F)CCN(C(=O)c3cc4cc(Br)ccc4s3)CC2)nc1

row,Ki [nM],SMILES
1,120,Cc1ccc(CNCC2(F)CCN(C(=O)C34CC5CC(CC(Br)(C5)C3)C4)CC2)nc1
2,320,Cc1ccc(CNCC2(F)CCN(C(=O)c3cc4ccc3CCc3ccc(cc3)CC4)CC2)nc1
3,29,CCC12CC3CC(C1)CC(C(=O)N1CCC(F)(CNCc4ccc(C)cn4)CC1)(C3)C2
4,35,Cc1ccc(CNCC2(F)CCN(C(=O)c3ccc(F)s3)CC2)nc1
5,460,Cc1ccc(CNCC2(F)CCN(C(=O)C34CC5CC(C)(CC(Br)(C5)C3)C4)CC2)nc1 (centres undefined)
6,910,Cc1ccc(CNCC2(F)CCN(C(=O)c3cc[nH]n3)CC2)nc1
7,1300,Cc1ccc(CNCC2(F)CCN(C(=O)C34CC5CC(C3)CC(C(F)(F)C(F)C(F)(F)F)(C5)C4)CC2)nc1 (centres undefined)
8,470,Cc1ccc(CNCC2(F)CCN(C(=O)C34CC5CC(C)(CC(C)(C5)C3)C4)CC2)nc1
9,79,Cc1ccc(CNCC2(O)CCN(C(=O)c3ccccc3)CC2)nc1
10,340,Cc1ccc(CNCC2(F)CC3CCC(C2)N3C(=O)c2ccccc2)nc1 (centres undefined)
11,8.9,Cc1ccc(CNCC2(F)CCN(C(=O)c3cc(Br)c(Br)o3)CC2)nc1
12,1600,Cc1ccc(CNC[C@@]2(O)C[C@H]3CCC[C@@H](C2)N3C(=O)c2ccccc2)nc1 (stereo in doubt; 43)
13,470,Cc1ccc(CNCC2(F)CCN(C(=O)c3ccc(-c4ccccn4)s3)CC2)nc1
14,69,Cc1ccc(CNCC2(F)CCN(C(=O)c3cccc(-c4ccccc4)c3)CC2)nc1
15,500,Cc1ccc(CNCC2(F)CCN(C(=O)c3ccc(-c4ccccc4)s3)CC2)nc1
16,110,Cc1ccc(CNCC2(F)CC3CCC(C2)N3C(=O)c2ccc(F)c(Cl)c2)nc1 (centres undefined)

row,SMILES,Ki [nM]
1,Cc1ccc(CNC[C@@]2(O)C[C@H]3CC[C@@H](C2)N3C(=O)c2ccccc2)nc1 (stereo in doubt; 38),63

# From ChEMBL document CHEMBL1255227, “Novel pyridylmethylamines as highly selective 5-HT(1A) superagonists” (J Med Chem, 2010)
